This is an account of results in ChEMBL document CHEMBL4184259, “Design, synthesis and evaluation of 4'-OH-flurbiprofen-chalcone hybrids as potential multifunctional agents for Alzheimer's disease treatment” (Bioorg Med Chem, 2018).

Series [1] can be described thus: Antioxidant activity assessed as trolox equivalent of […]-induced radical scavenging activity at 1 to 10 uM pretreated for 15 mins followed by […] addition measured at 1 min interval for 90 mins by ORAC-FL assay. The class given is functional.
Series [2] in a line: Inhibition of cupric ion-mediated amyloid beta (1 to 42) aggregation at 25 uM after 24 hrs by thioflavin T fluorescence assay relative to control.
Series [3] has as its target Amyloid-beta precursor protein (Homo sapiens) (UniProt P05067). Kind of series: Inhibition of self-induced aggregation of amyloid beta (1 to 42) (unknown origin) at 25 uM after 24 hrs by thioflavin T fluorescence method relative to control.
Series [4] relates to BV-2. The series can be described thus: Antiinflammatory activity in mouse BV2 cells assessed as inhibition of LPS-induced TNFalpha production at 0.5 uM pretreated for 30 mins followed by LPS-stimulation measured after 24 hrs by ELISA relative to control. It counts as functional.
For series [5], the system named is BV-2. Kind of series: Cytotoxicity against LPS-induced mouse BV2 cells assessed as effect on cell viability at 0.5 to 10 uM pretreated for 30 mins followed by LPS-stimulation after 24 hrs by MTT assay. It counts as cell-based. To be noted: bv-2, 24 h.
In series [6] the test system is BV-2. The series can be described thus: Antiinflammatory activity in mouse BV2 cells assessed as inhibition of LPS-induced nitric oxide production at 10 uM pretreated for 30 mins followed by LPS-stimulation measured after 24 hrs by Griess assay relative to control. It counts as functional.
A short description of series [7]: Metal chelating activity assessed as Al3+-compound complex formation by measuring shift in maximum absorption wavelength at 37.5 uM after 30 mins by UV-Vis spectral analysis.
Series [8] in a line: Effective permeability of the compound in PBS/EtOH at 100 ug/ml after 18 hrs by PAMPA-BBB assay.
Series [9] concerns BV-2. The series can be described thus: Antiinflammatory activity in mouse BV2 cells assessed as inhibition of LPS-induced nitric oxide production at 0.5 uM pretreated for 30 mins followed by LPS-stimulation measured after 24 hrs by Griess assay relative to control. It counts as functional.
Series [10] in a line: Metal chelating activity assessed as Cu2+-compound complex formation by measuring shift in maximum absorption wavelength at 37.5 uM after 30 mins by UV-Vis spectral analysis.
A short description of series [11]: Metal chelating activity assessed as mole fraction of compound required to show 1:1 stoichiometry for Cu2+-compound complex by UV-vis spectral analysis.
Series [12] deals with BV-2. Kind of series: Antiinflammatory activity in mouse BV2 cells assessed as inhibition of LPS-induced TNFalpha production at 2.5 uM pretreated for 30 mins followed by LPS-stimulation measured after 24 hrs by ELISA relative to control. The class given is functional.
Series [13] has as its system BV-2. Kind of series: Antiinflammatory activity in mouse BV2 cells assessed as inhibition of LPS-induced TNFalpha production at 10 uM pretreated for 30 mins followed by LPS-stimulation measured after 24 hrs by ELISA relative to control. The class given is functional.
Series [14] has as its system BV-2. Kind of series: Cytotoxicity against mouse BV2 cells assessed as effect on cell viability up to 10 uM after 30 mins by MTT assay. To be noted: bv-2, 0.5 h. The class given is cell-based.
The subject of series [15] is BV-2. The series can be described thus: Cytotoxicity against mouse BV2 cells assessed as reduction in cell viability at 40 uM after 30 mins by MTT assay relative to control. To be noted: bv-2, 0.5 h. It counts as cell-based.
Series [16] deals with BV-2. Kind of series: Antiinflammatory activity in mouse BV2 cells assessed as inhibition of LPS-induced nitric oxide production at 2.5 uM pretreated for 30 mins followed by LPS-stimulation measured after 24 hrs by Griess assay relative to control. It counts as functional.
Series [17] relates to BV-2. The series can be described thus: Cytotoxicity against LPS-induced mouse BV2 cells assessed as effect on cell viability at 2.5 to 10 uM pretreated for 30 mins followed by LPS-stimulation after 24 hrs by MTT assay. It counts as cell-based. To be noted: bv-2, 24 h.
The nature of series [18]: Metal chelating activity assessed as Zn2+-compound complex formation by measuring shift in maximum absorption wavelength at 37.5 uM after 30 mins by UV-Vis spectral analysis.
A short description of series [19]: Metal chelating activity assessed as Fe2+-compound complex formation by measuring shift in maximum absorption wavelength at 37.5 uM after 30 mins by UV-Vis spectral analysis.

Activity calls are given as the source filed them. The rule behind the calls is not given here.

Chain of Amyloid-beta precursor protein (Homo sapiens) (P05067 whole entry): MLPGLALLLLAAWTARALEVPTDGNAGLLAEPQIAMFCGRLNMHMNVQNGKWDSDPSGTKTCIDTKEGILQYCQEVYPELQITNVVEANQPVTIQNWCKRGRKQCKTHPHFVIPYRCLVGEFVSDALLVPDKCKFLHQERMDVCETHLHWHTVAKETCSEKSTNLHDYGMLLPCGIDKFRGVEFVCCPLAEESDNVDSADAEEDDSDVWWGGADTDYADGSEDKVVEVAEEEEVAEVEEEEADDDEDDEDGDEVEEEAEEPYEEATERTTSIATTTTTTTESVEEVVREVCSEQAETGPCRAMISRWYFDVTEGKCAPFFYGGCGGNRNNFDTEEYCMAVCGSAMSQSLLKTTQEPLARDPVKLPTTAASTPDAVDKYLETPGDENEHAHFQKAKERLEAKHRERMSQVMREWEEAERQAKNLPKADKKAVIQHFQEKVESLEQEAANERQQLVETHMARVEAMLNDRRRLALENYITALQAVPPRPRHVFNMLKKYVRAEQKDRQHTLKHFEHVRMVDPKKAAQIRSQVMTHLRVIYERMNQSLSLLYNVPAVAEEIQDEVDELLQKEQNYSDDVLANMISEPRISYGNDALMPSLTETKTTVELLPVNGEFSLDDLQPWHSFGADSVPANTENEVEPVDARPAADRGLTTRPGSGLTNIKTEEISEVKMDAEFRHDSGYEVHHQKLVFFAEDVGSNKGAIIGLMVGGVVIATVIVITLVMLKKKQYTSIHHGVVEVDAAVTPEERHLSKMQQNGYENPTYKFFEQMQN

As for `COc1ccc(/C=C/C(=O)c2cc(-c3ccc(C(C)C(=O)O)cc3F)ccc2O)c(OC)c1` (centres undefined), the Activity in [1] was found to be 1.05 equiv. The inhibition in series [2] was 45.3%; in series [3] it was 18.8%.
For `COc1ccc(O)c(/C=C/C(=O)c2cc(-c3ccc(C(C)C(=O)O)cc3F)ccc2O)c1` (centres undefined), in that order: 2.5 equiv, 22.2% and 38.1%.
For `COc1ccc(/C=C/C(=O)c2cc(-c3ccc(C(C)C(=O)O)cc3F)ccc2O)cc1O` (centres undefined) the same measures were 2 equiv, 14.6% and 31%.
For the compound `Cc1ccc(/C=C/C(=O)c2cc(-c3ccc(C(C)C(=O)O)cc3F)ccc2O)cc1` (centres undefined), the Activity in [1] worked out at 0.42 equiv. The results for the inhibition in [2] and in series [3] were 18.7% and 23.6%, respectively.
For `COc1ccc(/C=C/C(=O)c2cc(-c3ccc(C(C)C(=O)O)cc3F)ccc2O)cc1` (centres undefined), in that order: 0.61 equiv, 29.1% and 32.9%.
Regarding `COc1cccc(/C=C/C(=O)c2cc(-c3ccc(C(C)C(=O)O)cc3F)ccc2O)c1O` (centres undefined), the Activity in series [1] was determined as 1.6 equiv. For the same compound, the results for the inhibition in series [2] and in series [3] were 13.4% and 29%, respectively.
Turning to `COc1cc(/C=C/C(=O)CC(=O)/C=C/c2ccc(O)c(OC)c2)ccc1O`, in series [2], the inhibition was 69.5%.
For the compound `CC(C(=O)O)c1ccc(-c2ccc(O)c(C(=O)/C=C/c3ccc(O)cc3)c2)c(F)c1` (centres undefined), the Activity in series [1] was found to be 3.5 equiv. The inhibition in series [2] was determined as 26.1%; in series [3], 18.7%.
Turning to `CC(C(=O)O)c1ccc(-c2ccc(O)c(C(=O)/C=C/c3cccs3)c2)c(F)c1` (centres undefined), the Activity in [1] is 1.2 equiv. In addition, the inhibition was found to be 12.1% in [2] and 16.6% in series [3].
On to `CCN(CC)c1ccc(/C=C/C(=O)c2cc(-c3ccc(C(C)C(=O)O)cc3F)ccc2O)cc1` (centres undefined), for which the inhibition at 0.5 µM in series [4] stood at 14.3%; in series [9], 30.1%. Moreover, the Activity entry in series [5] is “Non-Toxic”; in series [7] it was 516 nm; in series [10], 500 nm; in series [11] it was 1.04 molar ratio; in [1] it was 3.3 equiv; in [14], “Non-Toxic”. The Activity in series [15] worked out at 64.9%. For the same compound, the inhibition at 10 µM stood at 68.4% in [6] and 65.4% in series [13]. The compound also had a Papp at 18 h, 100 ug/ml in series [8] of 6.66 ×10⁻⁶ cm/s. For the same compound, the results for the inhibition at 2.5 µM in [12] and in series [16] were 46.2% and 46.3%, respectively. Further, the inhibition in series [2] came out at 95%; in series [3], 78.2%.
As for `CC(C(=O)O)c1ccc(-c2ccc(O)c(C(=O)/C=C/c3cccnc3)c2)c(F)c1` (centres undefined), the Activity in series [1] was found to be 1.1 equiv. Also, the inhibition in series [2] worked out at 47%; in series [3], 8.3%.
For `CC(C(=O)O)c1ccc(-c2ccc(O)c(C(=O)/C=C/c3ccccc3N(C)C)c2)c(F)c1` (centres undefined), in that order: 0.77 equiv, 20.1% and 36.8%.
For `COc1ccccc1/C=C/C(=O)c1cc(-c2ccc(C(C)C(=O)O)cc2F)ccc1O` (centres undefined) the same measures were 1.06 equiv, 18.9% and 25.1%.
For `CC(C(=O)O)c1ccc(-c2ccc(O)c(C(=O)/C=C/c3ccncc3)c2)c(F)c1` (centres undefined) the same measures were 0.9 equiv, 52.8% and 18.2%.
On to `CC(C(=O)O)c1ccc(-c2ccc(O)c(C(=O)/C=C/c3ccc(N4CCOCC4)cc3)c2)c(F)c1` (centres undefined), for which the Activity in series [1] stood at 2.23 equiv. The inhibition in [2] is 47.2%; in series [3] it was 51.3%.
`CC(C(=O)O)c1ccc(-c2ccccc2)c(F)c1` (centres undefined) [FLURBIPROFEN]: the values for the inhibition at 10 µM in series [6] and in series [13] were 23% and 30.3%, respectively. Also, the inhibition at 2.5 µM in series [12] stood at 9.6%; in series [16], 11.8%. The Activity in series [1] is 0.14 equiv; in series [14] it was “Non-Toxic”; in series [15], “Non-Toxic”; in [17] it was “Non-Toxic”. The values for the inhibition in series [2] and in series [3] were 6.2% and 12.3%, respectively.
For `COc1ccc(/C=C/C(=O)c2cc(-c3ccc(C(C)C(=O)O)cc3F)ccc2O)cc1OC` (centres undefined), the Activity in [1] was 1.56 equiv. The inhibition is 24.5% in series [2] and 14.2% in series [3].
Take `CC(C(=O)O)c1ccc(-c2ccc(O)c(C(=O)/C=C/c3ccc(N(C)C)cc3)c2)c(F)c1` (centres undefined): the inhibition at 0.5 µM worked out at 12.1% in [4] and 25.7% in series [9]. The Activity result is “Non-Toxic” in series [5]; 500 nm in series [7]; 492 nm in [10]; 0.99 molar ratio in [11]; 3.1 equiv in series [1]; “Non-Toxic” in series [14]. Besides, the Activity in series [15] came out at 69.1%. Moreover, the inhibition at 10 µM came to 64.7% in [6] and 61.5% in series [13]. For the same compound, the Papp at 18 h, 100 ug/ml in series [8] came to 2.25 ×10⁻⁶ cm/s. In addition, the inhibition at 2.5 µM was found to be 39.6% in series [12] and 36% in series [16]. For the same compound, the outcome in series [18] and in series [19] was inactive. The inhibition in series [2] was found to be 52.4%; in series [3] it was 60%.
In the case of `COc1cc2c(cc1OC)C(=O)C(CC1CCN(Cc3ccccc3)CC1)C2` (centres undefined), in series [2], the inhibition is below 5%.
Consider `CC(C(=O)O)c1ccc(-c2ccc(O)c(C(=O)/C=C/c3ccccc3O)c2)c(F)c1` (centres undefined), for which the Activity in series [1] was 3.4 equiv. The results for the inhibition in series [2] and in series [3] were 16.3% and 23.1%, respectively.
For `CC(C(=O)O)c1ccc(-c2ccc(O)c(C(=O)/C=C/c3ccc(N4CCCCC4)cc3)c2)c(F)c1` (centres undefined) the same measures were 1.1 equiv, 53.8% and 31.5%.
